Assay results from ChEMBL document CHEMBL5150024, “Design and synthesis of TPP+-Mitomycin C conjugate with reduced toxicity” (Bioorg Med Chem Lett, 2022).
Calls of active or inactive are those of the source. The rule behind the calls is not given here.

Experiments:
HCT-116 = test: Antiproliferative activity against human HCT-116 cells assessed as inhibition of cell growth incubated for 48 hrs by MTT assay; assay type: functional, cell-based; conditions: HCT-116, 48 h
MCF7 = test: Antiproliferative activity against human MCF7 cells assessed as inhibition of cell growth incubated for 48 hrs by MTT assay; assay type: functional, cell-based; conditions: MCF7, 48 h
A-375 = test: Antiproliferative activity against human A-375 cells assessed as inhibition of cell growth incubated for 48 hrs by MTT assay; assay type: functional, cell-based; conditions: A-375, 48 h
[1] = Cytotoxicity against HUVEC assessed as inhibition of cell growth incubated for 48 hrs by MTT assay; assay type: toxicity, cell-based; conditions: human
MDA-MB-231 = test: Antiproliferative activity against human MDA-MB-231 cells assessed as inhibition of cell growth incubated for 48 hrs by MTT assay; assay type: functional, cell-based; conditions: MDA-MB-231, 48 h
A549 [2] = test: Antiproliferative activity against human A549 cells assessed as inhibition of cell growth incubated for 48 hrs by MTT assay; assay type: functional, cell-based; conditions: A549, 48 h
[3] = Cytotoxicity against human L02 cells assessed as inhibition of cell growth incubated for 48 hrs by MTT assay; assay type: toxicity, cell-based
PC-3 = test: Antiproliferative activity against human PC-3 cells assessed as inhibition of cell growth incubated for 48 hrs by MTT assay; assay type: functional, cell-based; conditions: PC-3, 48 h
A549 [4] = test: Induction of apoptosis in human A549 cells at 4 uM by Annexin V-FITC/PI staining based flow cytometric analysis; assay type: functional, cell-based; conditions: time 12-48 hrs, TDE = time-dependent effect
A549 [5] = test: Inhibition of cell invasion in human A549 cells at 2 to 4 uM incubated for 24 hrs by transwell invasion assay; assay type: functional, cell-based; conditions: dose 2-4 µM
A549 [6] = test: Induction of cell cycle arrest in human A549 cells assessed as S phase cells at 2 uM incubated for 24 hrs by flow cytometric analysis (reference value: 23.49 %); assay type: functional
A549 [7] = test: Induction of apoptosis in human A549 cells assessed as total apoptotic cells at 4 uM incubated for 48 hrs by Annexin V-FITC/PI staining based flow cytometric analysis relative to control; assay type: functional
[8] = Toxicity in mouse assessed as effect on heart pathology at 10 to 20 mg/kg, ip administered for 7 days and measured every 2 days; assay type: organism-based; conditions: in vivo, 168 h, dose 10-20 mg/kg, time 7 day
A549 [9] = test: Induction of cell cycle arrest in human A549 cells assessed as G1 phase cells at 1 uM incubated for 24 hrs by flow cytometric analysis (reference value: 60.75 %); assay type: functional
A549 [10] = test: Induction of mitochondrial membrane depolarization in human A549 cells assessed as increase in JC-1 monomer ratio at 2 to 8 uM incubated for 24 hrs by JC-1 staining based flow cytometric analysis; assay type: functional, cell-based; conditions: dose 2-8 µM
[11] = Toxicity in mouse assessed as effect on body weight at 20 mg/kg, ip administered for 7 days and measured every 2 days; assay type: organism-based; conditions: in vivo, 168 h, time 7 day
A549 [12] = test: Induction of cell cycle arrest in human A549 cells assessed as G2 phase cells at 2 uM incubated for 24 hrs by flow cytometric analysis (reference value: 15.75 %); assay type: functional
A549 [13] = test: Induction of cell cycle arrest in human A549 cells assessed as G2 phase cells at 1 uM incubated for 24 hrs by flow cytometric analysis (reference value: 15.75 %); assay type: functional
A549 [14] = test: Induction of cell cycle arrest in human A549 cells assessed as G2 phase cells at 4 uM incubated for 24 hrs by flow cytometric analysis (reference value: 15.75 %); assay type: functional
[15] = Toxicity in mouse assessed as effect on spleen pathology at 10 to 20 mg/kg, ip administered for 7 days and measured every 2 days; assay type: organism-based; conditions: in vivo, 168 h, dose 10-20 mg/kg, time 7 day
A549 [16] = test: Induction of apoptosis in human A549 cells assessed as total apoptotic cells at 1 uM incubated for 48 hrs by Annexin V-FITC/PI staining based flow cytometric analysis relative to control; assay type: functional
A549 [17] = test: Induction of mitochondrial membrane depolarization in human A549 cells assessed as increase in green fluorescence by measuring JC-1 monomer at 2 to 8 uM incubated for 4 hrs by JC-1 dye based assay; assay type: functional, cell-based; conditions: dose 2-8 µM
A549 [18] = test: Induction of cell cycle arrest in human A549 cells assessed as S phase cells at 4 uM incubated for 24 hrs by flow cytometric analysis (reference value: 23.49 %); assay type: functional
A549 [19] = test: Induction of cell cycle arrest in human A549 cells assessed as G1 phase cells at 4 uM incubated for 24 hrs by flow cytometric analysis (reference value: 60.75 %); assay type: functional
A549 [20] = test: Inhibition of cell migration in human A549 cells at 2 uM incubated for 48 hrs by wound healing assay; assay type: functional, cell-based
[21] = Toxicity in mouse assessed as death at 10 to 20 mg/kg, ip administered for 7 days and measured every 2 days; assay type: organism-based; conditions: in vivo, 168 h, dose 10-20 mg/kg, time 7 day
[22] = Toxicity in mouse assessed as clinical signs at 10 to 20 mg/kg, ip administered for 7 days and measured every 2 days; assay type: organism-based; conditions: in vivo, 168 h, dose 10-20 mg/kg, time 7 day
[23] = Toxicity in mouse assessed as effect on kidney pathology at 10 to 20 mg/kg, ip administered for 7 days and measured every 2 days; assay type: organism-based; conditions: in vivo, 168 h, dose 10-20 mg/kg, time 7 day
A549 [24] = test: Induction of mitochondrial membrane depolarization in human A549 cells assessed as loss of red fluorescence at 2 to 8 uM incubated for 4 hrs by TMRM staining based fluorescence assay; assay type: functional, cell-based; conditions: dose 2-8 µM
A549 [25] = test: Induction of cell cycle arrest in human A549 cells assessed as G1 phase cells at 2 uM incubated for 24 hrs by flow cytometric analysis (reference value: 60.75 %); assay type: functional
A549 [26] = test: Induction of cell cycle arrest in human A549 cells assessed as S phase cells at 1 uM incubated for 24 hrs by flow cytometric analysis (reference value: 23.49 %); assay type: functional
A549 [27] = test: Induction of apoptosis in human A549 cells assessed as total apoptotic cells at 2 uM incubated for 48 hrs by Annexin V-FITC/PI staining based flow cytometric analysis relative to control; assay type: functional
[28] = Toxicity in mouse assessed as effect on lung pathology at 10 to 20 mg/kg, ip administered for 7 days and measured every 2 days; assay type: organism-based; conditions: in vivo, 168 h, dose 10-20 mg/kg, time 7 day
[29] = Toxicity in mouse assessed as effect on liver pathology at 10 to 20 mg/kg, ip administered for 7 days and measured every 2 days; assay type: organism-based; conditions: in vivo, 168 h, dose 10-20 mg/kg, time 7 day
A549 [30] = test: Antiproliferative activity against human A549 cells assessed as inhibition of cell growth preincubated with FCCP for 1 hrs followed by compound addition and measured after 48 hrs by MTT assay; assay type: functional, cell-based

CO[C@@]12[C@H](COC(N)=O)C3=C(C(=O)C(C)=C(N)C3=O)N1C[C@H]1[C@@H]2N1C(=O)CCCCCCC[P+](c1ccccc1)(c1ccccc1)c1ccccc1
IC50 (HCT-116): 1.23 µM | IC50 (MCF7): 6.59 µM | IC50 (A-375): 1.86 µM | IC50 at 48 h [1]: > 20 µM | IC50 (MDA-MB-231): 7.64 µM | IC50 (A549 [2]): 1.31 µM | IC50 at 48 h [3]: > 20 µM | IC50 (PC-3): 11.9 µM

CO[C@@]12[C@H](COC(N)=O)C3=C(C(=O)C(C)=C(N)C3=O)N1C[C@H]1[C@@H]2N1C(=O)CCCCCCCCC[P+](c1ccccc1)(c1ccccc1)c1ccccc1.[Br-]
Activity (A549 [4]): Tde | inhibition (A549 [5]): Active | Activity (A549 [6]): 49.53% | Activity (A549 [7]): 24.9% | Activity [8]: Non-Toxic | Activity (A549 [9]): 14.87% | Activity (A549 [10]): Active | Activity [11]: Non-Toxic | Activity (A549 [12]): 44.68% | Activity (A549 [13]): 34.21% | IC50 (HCT-116): 1.22 µM | IC50 (MCF7): 5.45 µM | IC50 (A-375): 1.46 µM | Activity (A549 [14]): 14.35% | IC50 at 48 h [1]: > 20 µM | Activity [15]: Non-Toxic | Activity (A549 [16]): 18% | Activity (A549 [17]): Active | Activity (A549 [18]): 84.94% | Activity (A549 [19]): 0.72% | IC50 (MDA-MB-231): 3.11 µM | inhibition (A549 [20]): Active | Activity [21]: Non-Toxic | Activity [22]: Non-Toxic | IC50 (A549 [2]): 1.09 µM | Activity [23]: Non-Toxic | Activity (A549 [24]): Active | Activity (A549 [25]): 5.79% | IC50 at 48 h [3]: > 20 µM | Activity (A549 [26]): 50.92% | Activity (A549 [27]): 20.2% | Activity [28]: Non-Toxic | Activity [29]: Non-Toxic | IC50 (A549 [30]): 11.3 µM | IC50 (PC-3): 6.05 µM

CO[C@@]12[C@H](COC(N)=O)C3=C(C(=O)C(C)=C(N)C3=O)N1C[C@H]1[C@@H]2N1CCCCCCCCCC[P+](c1ccccc1)(c1ccccc1)c1ccccc1 (some centres undefined)
IC50 (HCT-116): 1.96 µM | IC50 (MCF7): 3.17 µM | IC50 (A-375): 1.96 µM | IC50 at 48 h [1]: 10 µM | IC50 (MDA-MB-231): 1.95 µM | IC50 (A549 [2]): 2.82 µM | IC50 at 48 h [3]: > 5 µM | IC50 (PC-3): 4.71 µM

CO[C@@]12[C@H](COC(N)=O)C3=C(C(=O)C(C)=C(N)C3=O)N1C[C@H]1[C@@H]2N1C(=O)CCCCCCCCCCC[P+](c1ccccc1)(c1ccccc1)c1ccccc1
IC50 (HCT-116): 0.75 µM | IC50 (MCF7): 4.56 µM | IC50 (A-375): 0.64 µM | IC50 at 48 h [1]: > 5 µM | IC50 (MDA-MB-231): 2.63 µM | IC50 (A549 [2]): 0.67 µM | IC50 at 48 h [3]: > 2.5 µM | IC50 (PC-3): 0.97 µM
